Data from patent publication US20260216141A1, “NECROSIS INHIBITOR” (LINKGEVITY LIMITED, priority 2023, published 2026).
Entries after “also recorded” stand apart in the source; their conditions may differ.

How the values were obtained:
E. coli = E. coli oxidative stress, colony forming units; type: cell-based; conditions: EGTA 2500 μM during stress; 50 min 1 mM H2O2
Experimental: 2 loops of E. coli stationary-phase bacterial cells collected post seeding (80 μL from a culture grown for 12 hrs) on agar plates containing bactopeptone and allowing to grow for 24 hrs was collected in buffer. Bacterial cells were then stressed for 50 min using 1 mM hydrogen peroxide. Treatment is EGTA 2500 μM during stress. Cells were then washed in buffer. Following stress, bacteria was washed in buffer and then diluted 1:500 in MilliQ water and seeded onto agar plates containing bactopeptone and left at 37° C. overnight. This was followed by counting colony forming units (CFU) counted. Three repeats were performed.
(§1) Bacteria, E. coli, and yeast, S. pombi, were exposed to toxin hydrogen peroxide stress (stress is for 50 min 1 mM H2O2) with or without high doses (2500 μM; c.f. FIG. 2) of the chelating agent EGTA (inhibitor of the predicted weak spot of loss of calcium ion homeostasis in the cytosol) delivered during the stress.
Following stress, bacteria cells were then placed on agar plates and allowed to grow at 37° C. overnight and colony forming units (CFU) were then counted.

[1] = test system: Zebra fish (Danio rerio) liver; assay: Zebra fish liver oxidative stress, PI/DAPI staining; type: cell-based; conditions: 2500 μM EGTA during stress, 7 min in 1 mM H2O2
Experimental: Freshly culled zebrafish (Danio rerio) was dissected to quickly remove the liver which was then placed in PBS buffer and immediately stressed with 1 mM hydrogen peroxide for 7 min in with or without 2500 μM EGTA. The liver was then washed in PBS to stop the stress and stained with PI as well as DAPI to visualise all cell nuclei (including intact cell nuclei). The liver was then placed on a microscope slide under a coverslip and imaged.
Moving to more complex animals, the intact liver from freshly culled and dissected zebrafish (Danio rerio) was placed in PBS buffer and immediately stressed with the toxin hydrogen peroxide with or without EGTA. The liver was then washed in PBS and stained with PI as well as DAPI to visualise all cell nuclei (including intact cell nuclei). The liver was then placed on a microscope slide under a coverslip and imaged, and the percentage of PI-stained cells scored (relative to all cells seen in the image, i.e., DAPI stained).

Hepg2s spheroids = type: cell-based
Experimental: Media changes were on alternative days. […] DMSO controls were added on each plate.
In some of the following Examples, human 3D cell culture was employed using liver Hepg2 cells. 3D cell culture is known to accurately replicate a cell's native environment. During embryonic development, cells aggregate and self-assemble into complex multi-cellular structures. The same aggregation process can likewise occur in in vitro culture systems if cell-cell cohesion is favoured over cell attachment to a substrate. The resulting 3D cell culture aggregates are known as spheroids. […] A standard method of spheroid formation in U-bottom low adhesion plates was used in the Examples herein.
This is because, as the spheroids grow, only the peripheral cells obtain oxygen and nutrients from the cell culture medium. The inner cells die from cell death necrosis, with the formation of large necrotic cores (observable though use of standard live dead stains). Thus, necrotic core formation represents a naturally occurring hypoxic and nutrient stress. This resembles multiple forms of shock in humans where blood flow carrying nutrients and oxygen is disrupted to certain cells, tissues and/or organs.

S. pombi = S. pombi oxidative stress, Propidium iodide staining; type: cell-based; conditions: EGTA 2500 μM during stress; 50 min 1 mM H2O2
Experimental: A culture of S. pombi was exposed to 1 mM hydrogen peroxide for 50 min. Following this the yeast cells were washed in buffer and stained with the dye Propidium iodide (PI) and placed on a microscope slide under a coverslip and imaged using Nomarski and epifluorescence microscopy to identify the percentage of yeast cells that underwent necrosis. Treatment is EGTA 2500 μM during stress. Two repeats were performed.
as §1
For yeast, cells were stained with the standard viability dye Propidium iodide (PI) that only enters necrotic cells, placed on a microscope slide under a coverslip, and imaged using Nomarski and epifluorescence microscopy to identify the percentage of cells that undergo necrosis (all cells present could be counted using Nomarski microscopy).

C. elegans = C. elegans survival after cold, heat, oxidative and toxin stress; type: in vivo, Caenorhabditis elegans; conditions: EGTA 2500 μM in liposomes, 3 hrs prior to stress or 3 hrs post stress
Experimental: C. elegans was maintained on nematode growth medium (NGM) agar plates seeded with Escherichia coli OP50, using standard culture methodologies (S. Brenner, 1974). A C. elegans (N2H) hermaphrodite stock was used as wild-type. Day 1 hermaphrodites were used in experiments and all maintenance and trials were conducted at 20° C. unless otherwise stated.
Per trial, 100 animals were placed in 1.5 ml Eppendorf tubes ([…]) containing 100 μl M9 buffer, and then transferred to a −80° C. incubator for 1.5 min. Following the stress, animals were transferred to a 20° C. incubator and maintained as usual on OP50 NGM plates. • Heat stress
Per trial, 100 animals were placed in a 37° C. incubator for 4.5 hrs on NGM plates. Following the stress, animals were transferred to a 20° C. incubator and maintained as usual on OP50 NGM plates. • Oxidative stress
Per trial, 100 animals were transferred into 1.5 ml Eppendorf tubes (20 animals per tube) containing 300 μL of 2M hydrogen peroxide for 5 min. Following the stress, animals were transferred to a 20° C. incubator and maintained as usual on OP50 NGM plates. • Toxin stress
Per trial, 100 animals were transferred into 1.5 ml Eppendorf tubes (20 animals per tube) containing 300 μL of 1.3% (v/v) tert-butylhydroperoxide (tBOOH) for 5 min. […]
Next the model Caenorhabditis elegans was used and animal survival following stress was scored. […]

SMILES: O=C(O)CN(CCOCCOCCN(CC(=O)O)CC(=O)O)CC(=O)O [EGTA, ethylene glycol-bis(β-aminoethyl ether)-N,N,N′,N′-tetraacetic acid]
- E. coli death / colony forming units (CFU) following oxidative stress (E. coli): death is prevented
- % of necrotic cells (PI stain) relative to all cells (DAPI stain) [1]: necrosis cell death is prevented; also recorded: reduction in the percentage of necrotic (PI stained) cells
- dosage needed to suppress necrosis (Hepg2s spheroids; Hepg2s spheroids, day 7): 2500 µM
- toxicity at earlier time points (Hepg2s spheroids; time points earlier than day 7): some mild, but not statistically significant, toxicity
- S. pombi death / % of necrotic (PI stained) cells following oxidative stress (S. pombi): death is prevented
- C. elegans death / survival following stress (C. elegans): death is prevented
